# Test results: patent publication US12473262B2, “Aryl hydrocarbon receptor activators” (Oregon State University, priority 2019, dated 2025)
# Key:
# [1] = target: CYP-2C19 (Homo sapiens (Human), UniProt P33261); test: CYP panel profile: P450 inhibition, CYP-2C19; type: in vitro ADME; settings: human liver microsomes
# Procedure: (§1) 5. CYP Panel Profile: P450 Inhibition
# (§2) From 10 mM stock solutions of test compounds, a dilution plate was prepared diluting serially starting from 5 mM up to 2 μM in Acetonitrile/DMSO or Methanol/DMSO Human liver Microsomes were added at required concentration as per specific CYP isoform in a deep well assay plate (1A2, 2C9, 2D6, 2B6, 2C8, 2C19, and 3A4). Compounds were spiked in all wells from dilution plate at final concentrations starting from 50 μM up to 0.02 μM, except for positive and negative control. Specific substrate were added to all wells and reactions were pre-incubated for 10 min. To start reactions, NADPH was added to all wells at 1 mM final concentration. Assay plate was mixed by vortexing and incubated at 37° C. for […] for 3A4.20 min for (1A2, 2C9, 2B6, 2C8, 2D6) and […] for 2C19. A quencher with chilled acetonitrile suitable internal standard was added. Samples were centrifuged and supernatants were collected and subjected to LC-MS/MS analysis for determination.
# [2] = target: CYP-2C8 (Homo sapiens (Human), UniProt P10632); test: CYP panel profile: P450 inhibition, CYP-2C8; type: in vitro ADME; settings: human liver microsomes
# Procedure: as §1, §2
# [3] = target: aryl hydrocarbon receptor (AhR) (Mus musculus (Mouse), UniProt P30561); test: AhR ligand screening: AhRE-luciferase reporter in transfected Hepa1 cells; type: cell-based; settings: for Fold @ 1 nM: fold change of luciferase expression at 1 nM test compound relative to vehicle (0.1% DMSO); for Fold @ 100 nM: fold change of luciferase expression at 100 nM test compound relative to vehicle (0.1% DMSO); for Fold @ 10 uM: fold change of luciferase expression at 10 uM test compound relative to vehicle (0.1% DMSO); for Fold relative to benchmark @ 100 nM: luciferase expression at 100 nM test compound relative to 100 nM benchmark compound 11-cl-BBQ
# Outline: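 Values are fold luciferase induction relative to vehicle (0.1% DMSO), read by luminometry of lysates from Hepa1 cells carrying an AhRE-driven luciferase reporter. Cells were seeded at 1×10^4 per well, grown overnight and treated with compound before lysis.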
# [4] = target: CYP-2D6 (Homo sapiens (Human), UniProt P10635); test: CYP panel profile: P450 inhibition, CYP-2D6; type: in vitro ADME; settings: human liver microsomes
# Procedure: as §1, §2
# [5] = target: CYP-3A4 (Homo sapiens (Human), UniProt P08684); test: CYP panel profile: P450 inhibition, CYP-3A4; type: in vitro ADME; settings: human liver microsomes
# Procedure: as §1, §2
# [6] = target: CYP-1A2 (Homo sapiens (Human), UniProt P05177); test: CYP panel profile: P450 inhibition, CYP-1A2; type: in vitro ADME; settings: human liver microsomes; read-out: CYP-1A2 IC50
# Procedure: as §1, §2
# [7] = target: CYP-2C9 (Homo sapiens (Human), UniProt P11712); test: CYP panel profile: P450 inhibition, CYP-2C9; type: in vitro ADME; settings: human liver microsomes
# Procedure: as §1, §2
# [8] = target: CYP-2B6 (Homo sapiens (Human), UniProt P20813); test: CYP panel profile: P450 inhibition, CYP-2B6; type: in vitro ADME; settings: human liver microsomes
# Procedure: as §1, §2
# CYP-3A4, sequence (P08684 whole entry): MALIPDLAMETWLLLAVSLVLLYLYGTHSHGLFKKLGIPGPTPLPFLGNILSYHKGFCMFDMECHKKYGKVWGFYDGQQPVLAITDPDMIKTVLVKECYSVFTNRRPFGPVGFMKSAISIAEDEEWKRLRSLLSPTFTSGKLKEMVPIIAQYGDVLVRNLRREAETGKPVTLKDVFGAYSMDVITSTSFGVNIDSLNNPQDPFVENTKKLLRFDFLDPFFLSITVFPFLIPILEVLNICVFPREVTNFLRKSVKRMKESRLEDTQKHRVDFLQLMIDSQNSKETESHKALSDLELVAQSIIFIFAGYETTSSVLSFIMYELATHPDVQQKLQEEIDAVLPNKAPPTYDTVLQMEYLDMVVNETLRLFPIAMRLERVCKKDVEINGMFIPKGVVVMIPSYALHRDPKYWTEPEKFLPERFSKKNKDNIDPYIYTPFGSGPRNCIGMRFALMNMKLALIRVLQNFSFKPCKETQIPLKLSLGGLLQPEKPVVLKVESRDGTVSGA
# CYP-2C9, sequence (P11712 whole entry): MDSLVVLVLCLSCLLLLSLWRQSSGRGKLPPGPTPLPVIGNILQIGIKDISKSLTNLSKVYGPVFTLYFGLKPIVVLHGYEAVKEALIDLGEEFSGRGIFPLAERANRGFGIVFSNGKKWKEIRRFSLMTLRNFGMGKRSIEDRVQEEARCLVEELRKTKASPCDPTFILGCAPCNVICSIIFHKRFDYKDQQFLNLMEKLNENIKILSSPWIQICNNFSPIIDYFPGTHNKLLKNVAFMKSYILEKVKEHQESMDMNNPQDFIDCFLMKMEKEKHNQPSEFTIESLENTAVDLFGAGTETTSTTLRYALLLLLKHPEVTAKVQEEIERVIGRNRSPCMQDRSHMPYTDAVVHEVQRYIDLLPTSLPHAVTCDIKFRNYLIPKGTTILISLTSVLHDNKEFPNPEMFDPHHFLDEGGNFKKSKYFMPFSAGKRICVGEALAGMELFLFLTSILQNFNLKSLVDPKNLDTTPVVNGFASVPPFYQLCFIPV
# CYP-1A2, sequence (P05177 whole entry): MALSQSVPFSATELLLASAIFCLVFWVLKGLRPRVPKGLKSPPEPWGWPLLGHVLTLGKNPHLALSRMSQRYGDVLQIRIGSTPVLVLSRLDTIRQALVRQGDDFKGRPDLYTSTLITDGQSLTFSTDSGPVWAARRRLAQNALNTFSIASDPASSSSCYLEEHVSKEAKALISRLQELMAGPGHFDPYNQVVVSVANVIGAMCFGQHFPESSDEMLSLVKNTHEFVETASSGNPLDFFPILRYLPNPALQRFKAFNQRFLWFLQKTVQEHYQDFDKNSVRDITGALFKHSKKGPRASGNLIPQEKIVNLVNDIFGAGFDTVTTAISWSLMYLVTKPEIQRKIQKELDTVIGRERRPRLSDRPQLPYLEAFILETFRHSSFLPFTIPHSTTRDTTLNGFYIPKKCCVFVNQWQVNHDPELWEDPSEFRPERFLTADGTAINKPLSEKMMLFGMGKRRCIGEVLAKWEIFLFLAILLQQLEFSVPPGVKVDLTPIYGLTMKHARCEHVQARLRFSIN
# CYP-2B6, sequence (P20813 whole entry): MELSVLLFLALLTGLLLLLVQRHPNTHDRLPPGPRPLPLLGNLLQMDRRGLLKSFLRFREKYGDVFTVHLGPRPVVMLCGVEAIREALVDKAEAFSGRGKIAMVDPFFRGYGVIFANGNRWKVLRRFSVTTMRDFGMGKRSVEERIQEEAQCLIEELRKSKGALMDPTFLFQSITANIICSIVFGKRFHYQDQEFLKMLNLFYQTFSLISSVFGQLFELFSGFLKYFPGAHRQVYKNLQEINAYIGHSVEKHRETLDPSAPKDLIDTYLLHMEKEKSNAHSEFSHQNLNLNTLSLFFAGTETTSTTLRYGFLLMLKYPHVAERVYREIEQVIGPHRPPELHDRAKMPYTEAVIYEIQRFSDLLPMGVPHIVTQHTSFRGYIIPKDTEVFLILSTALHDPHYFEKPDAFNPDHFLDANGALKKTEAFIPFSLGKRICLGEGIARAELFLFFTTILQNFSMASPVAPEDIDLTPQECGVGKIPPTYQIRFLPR
# aryl hydrocarbon receptor (AhR), sequence (P30561 10-805): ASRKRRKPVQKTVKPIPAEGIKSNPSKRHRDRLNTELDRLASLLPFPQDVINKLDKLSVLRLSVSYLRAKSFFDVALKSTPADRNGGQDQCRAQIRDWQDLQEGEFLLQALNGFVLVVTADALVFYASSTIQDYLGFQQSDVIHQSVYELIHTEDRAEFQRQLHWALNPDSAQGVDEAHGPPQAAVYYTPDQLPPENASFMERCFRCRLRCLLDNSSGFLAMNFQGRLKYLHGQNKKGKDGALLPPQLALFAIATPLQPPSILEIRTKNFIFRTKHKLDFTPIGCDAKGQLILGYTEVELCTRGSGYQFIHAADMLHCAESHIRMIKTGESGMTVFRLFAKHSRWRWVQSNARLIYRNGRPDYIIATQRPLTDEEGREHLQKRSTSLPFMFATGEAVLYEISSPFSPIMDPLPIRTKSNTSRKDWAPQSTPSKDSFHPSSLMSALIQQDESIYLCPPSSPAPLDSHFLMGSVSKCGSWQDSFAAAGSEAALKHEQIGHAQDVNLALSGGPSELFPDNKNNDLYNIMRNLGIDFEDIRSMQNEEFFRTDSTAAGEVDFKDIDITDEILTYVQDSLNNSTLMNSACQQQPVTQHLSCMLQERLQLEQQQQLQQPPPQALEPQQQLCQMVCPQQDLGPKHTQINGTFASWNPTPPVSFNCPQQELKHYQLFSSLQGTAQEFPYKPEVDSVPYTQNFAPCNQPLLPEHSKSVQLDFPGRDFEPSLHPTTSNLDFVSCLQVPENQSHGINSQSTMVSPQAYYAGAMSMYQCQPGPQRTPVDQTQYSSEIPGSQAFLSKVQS
# aryl hydrocarbon receptor (AhR), sequence (P53762 whole entry partner): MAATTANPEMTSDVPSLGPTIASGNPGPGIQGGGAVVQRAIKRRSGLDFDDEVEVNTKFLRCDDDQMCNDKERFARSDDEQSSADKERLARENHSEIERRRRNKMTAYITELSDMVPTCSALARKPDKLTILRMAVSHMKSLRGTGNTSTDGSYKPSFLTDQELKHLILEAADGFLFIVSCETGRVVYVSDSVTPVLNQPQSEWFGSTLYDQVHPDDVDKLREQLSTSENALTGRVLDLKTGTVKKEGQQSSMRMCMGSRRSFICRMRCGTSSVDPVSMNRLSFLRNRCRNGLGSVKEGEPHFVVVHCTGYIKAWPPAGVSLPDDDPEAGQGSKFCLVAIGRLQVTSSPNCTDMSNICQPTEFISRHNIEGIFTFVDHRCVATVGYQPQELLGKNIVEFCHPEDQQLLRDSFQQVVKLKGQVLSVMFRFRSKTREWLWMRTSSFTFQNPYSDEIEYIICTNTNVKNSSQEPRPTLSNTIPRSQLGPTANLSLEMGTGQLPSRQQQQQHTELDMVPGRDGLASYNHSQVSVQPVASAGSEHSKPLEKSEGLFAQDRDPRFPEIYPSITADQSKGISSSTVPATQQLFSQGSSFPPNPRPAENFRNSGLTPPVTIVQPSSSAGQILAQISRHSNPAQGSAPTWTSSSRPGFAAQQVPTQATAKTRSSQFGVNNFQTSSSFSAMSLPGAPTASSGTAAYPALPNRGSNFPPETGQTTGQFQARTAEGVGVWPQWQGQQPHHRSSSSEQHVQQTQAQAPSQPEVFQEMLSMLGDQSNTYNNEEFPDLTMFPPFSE
# CYP-2C8, sequence (P10632 whole entry): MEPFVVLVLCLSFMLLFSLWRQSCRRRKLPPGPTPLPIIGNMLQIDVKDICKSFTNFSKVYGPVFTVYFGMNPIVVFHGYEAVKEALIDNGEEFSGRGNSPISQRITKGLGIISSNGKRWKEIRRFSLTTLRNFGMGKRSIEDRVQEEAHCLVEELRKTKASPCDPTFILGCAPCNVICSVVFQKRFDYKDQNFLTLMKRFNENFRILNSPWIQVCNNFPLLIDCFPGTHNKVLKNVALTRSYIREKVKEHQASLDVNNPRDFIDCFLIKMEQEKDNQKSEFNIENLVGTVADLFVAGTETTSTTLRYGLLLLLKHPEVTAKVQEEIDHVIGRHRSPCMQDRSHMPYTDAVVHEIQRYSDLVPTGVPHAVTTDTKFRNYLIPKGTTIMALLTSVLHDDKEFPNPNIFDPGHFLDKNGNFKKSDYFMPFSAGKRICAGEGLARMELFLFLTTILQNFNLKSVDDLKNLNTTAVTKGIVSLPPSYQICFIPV
# CYP-2D6, sequence (P10635 whole entry): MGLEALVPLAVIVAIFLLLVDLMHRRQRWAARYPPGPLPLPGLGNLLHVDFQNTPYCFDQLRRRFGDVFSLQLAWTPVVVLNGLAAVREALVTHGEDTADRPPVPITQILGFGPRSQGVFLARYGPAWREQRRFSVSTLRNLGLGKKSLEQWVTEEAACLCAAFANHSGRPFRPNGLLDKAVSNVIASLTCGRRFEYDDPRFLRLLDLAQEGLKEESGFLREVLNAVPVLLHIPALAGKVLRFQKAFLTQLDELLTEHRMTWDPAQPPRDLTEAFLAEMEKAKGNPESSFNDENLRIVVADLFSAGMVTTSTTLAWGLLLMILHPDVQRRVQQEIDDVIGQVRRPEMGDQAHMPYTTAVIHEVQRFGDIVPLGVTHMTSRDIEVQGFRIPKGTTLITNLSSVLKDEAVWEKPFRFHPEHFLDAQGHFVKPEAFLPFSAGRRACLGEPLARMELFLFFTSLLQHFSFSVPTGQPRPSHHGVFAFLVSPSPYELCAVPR
SMILES,IC50 [1],IC50 [2],Fold @ 1 nM [3],Fold @ 100 nM [3],Fold @ 10 uM [3],Fold relative to benchmark @ 100 nM [3],IC50 [4],IC50 [5],IC50 [6],IC50 [7],IC50 [8]
O=C(c1ccccc1)n1c(-c2cccc3ccccc23)nc2ccc(Cl)cc21 [Compound 495],1.4 µM,1.9 µM,2.3 fold,25 fold,59 fold,0.81 fold,32.6 µM,5.3 µM,0.3 µM,5.6 µM,19.3 µM
O=C(c1ccc(F)cc1)n1c(-c2cccc3ccccc23)nc2ccc(Cl)cc21 [Compound 587],6.7 µM,3.2 µM,2 fold,16 fold,19 fold,1.07 fold,26 µM,6.3 µM,0.4 µM,5.3 µM,11.6 µM
O=C(c1ccccc1)n1c(-c2cccc3ccccc23)nc2cc(Cl)ccc21 [Compound 494],5.2 µM,2.5 µM,1 fold,29 fold,43 fold,0.94 fold,> 50 µM,1.2 µM,0.7 µM,4.2 µM,> 45 µM
O=C(c1cccc2ccccc12)n1c(-c2cccc3ccccc23)nc2cc(Cl)ccc21 [Compound 704],4.6 µM,5.6 µM,–,–,–,–,> 50 µM,3.9 µM,1.2 µM,8.9 µM,8.2 µM
O=C(c1ccc(F)cc1)n1c(-c2cccc3ccccc23)nc2cc(Cl)ccc21 [Compound 586],7.1 µM,9.1 µM,7 fold,20 fold,18 fold,1.33 fold,> 50 µM,1.3 µM,1.7 µM,7.9 µM,22 µM
"COc1ccc(C(=O)n2c(-c3cccc4ccccc34)nc3ccc(Cl)cc32)cc1 [Compound 536, (6-chloro-2-(naphthalen-1-yl)-1H-benzo[d]imidazol-1-yl)(4-methoxyphenyl)methanone]",2.6 µM,17.1 µM,1 fold,39 fold,41 fold,0.98 fold,> 50 µM,1.7 µM,0.6 µM,4.8 µM,16 µM
